Test results reported in patent US11690824B2, “Antibacterial compounds” (THE GENERAL HOSPITAL CORPORATION, priority 2018, dated 2023).
≈ marks a conversion by molar mass, not a printed value. Read-outs that look alike come from different tables or passages of the source.

What was measured:
K. pneumoniae WGLW2 = assay: MIC assay; assay type: cell-based, Klebsiella pneumoniae; conditions: Klebsiella pneumoniae
Text: (§1) Bacterial strains, growth conditions, and persister isolation. Methicillin-resistant S. aureus strains, MW2 BAA-1707, ATCC 33591, and JE2, methicillin-susceptible S. aureus strains, NCTC 8325, Newman, and ATCC 29213, vancomycin-resistant S. aureus strain, VRS1, Enterococcus faecium E007, vancomycin-resistant E. faecium strains, C68,^7 WB312, and WC196, Klebsiella pneumoniae WGLW2 (BEI Resources, Manassas, Va., USA), Acinetobacter baumannii ATCC 17978, Pseudomonas aeruginosa PA14, and Enterobacter aerogenes ATCC 13048 were used to test antimicrobial activity (Table 1). S. aureus strains were grown in tryptic soy broth (TSB) (BD, Franklin Lakes, N.J., USA), and E. faecium was grown in brain-heart infusion (BHI) broth (BD, Franklin Lakes, N.J., USA) at 37° C. K. pneumoniae, A. baumannii, P. aeruginosa, and E. aerogenes were grown in Luria Bertani (LB) broth (BD, Franklin Lakes, N.J., USA) at 37° C.
(§2) Minimal inhibitory concentration (MIC) assay. The MICS of antibiotics were determined by the standard micro-dilution method recommended by the Clinical and Laboratory Standards Institute. MIC assays were conducted in biological triplicate.

S. aureus ATCC 33591 = assay: MIC assay; assay type: cell-based; conditions: Staphylococcus aureus
Text: as §1, §2

S. aureus JE2 = assay: MIC assay; assay type: cell-based; conditions: Staphylococcus aureus
Text: as §1, §2

S. aureus Newman = assay: MIC assay; assay type: cell-based; conditions: Staphylococcus aureus, read-out: Minimum inhibitory concentration
Text: as §1, §2

S. aureus NCTC 8325 = assay: MIC assay; assay type: cell-based; conditions: Staphylococcus aureus
Text: as §1, §2

S. aureus VRS1 = assay: MIC assay; assay type: cell-based; conditions: Staphylococcus aureus
Text: as §1, §2

P. aeruginosa PA14 = assay: MIC assay; assay type: cell-based, Pseudomonas aeruginosa; conditions: Pseudomonas aeruginosa
Text: as §1, §2

MRSA MW2 [1] = assay: Serial passage resistance development; assay type: cell-based, S. aureus; conditions: 25 days, sub-MIC concentrations
Protocol: Serial passage resistance development. […] Briefly, an extended range of concentrations of nTZDpa was generated by two-fold serial dilution with cation-adjusted Mueller Hinton (CaMH) broth (Difco, Detroit, USA) from three different starting concentrations (20, 24, and 32 μg/mL) covering 0.1875 to 32.0 μg/mL, which extended over three rows of the 96-well plate. Three sets of the extended gradient of nTZDpa were created in the 96-well plate to provide triplicates of the experiment. […] MRSA MW2 overnight cultures were adjusted to 1×10^6 CFU/mL in CaMH broth, and 50 μL of the diluted cultures were dispensed into the 96-well plates containing 50 μL of the extended gradient of antibiotics. After incubation for 24 h at 35° C., bacterial growth was determined by measuring optical density at 600 nm using a SpectraMax plate reader (Molecular Devices, Sunnyvale, Calif.), and growth was defined as an optical density reading of ≥0.1. Bacterial cells growing at the highest concentration of the antimicrobial (just below the MIC) were diluted 1:1000 in CaMH broth and then used to inoculate the next day's serial-passage plate. The remaining bacterial cells were stored at −80° C. in CaMH broth with 16% glycerol. This process was repeated for 25 days.

E. faecium WB312 = assay: MIC assay; assay type: cell-based, Enterococcus faecium; conditions: Enterococcus faecium
Text: as §1, §2

E. faecium C68 = assay: MIC assay; assay type: cell-based, Enterococcus faecium; conditions: Enterococcus faecium
Text: as §1, §2

E. faecium WC196 = assay: MIC assay; assay type: cell-based, Enterococcus faecium; conditions: Enterococcus faecium
Text: as §1, §2

E.faecium E007 = assay: MIC assay; assay type: cell-based, Enterococcus faecium; conditions: Enterococcus faecium
Text: as §1, §2

A. baumannii ATCC 17978 = assay: MIC assay; assay type: cell-based, Acinetobacter baumannii; conditions: Acinetobacter baumannii
Text: as §1, §2

E. aerogenes ATCC 13048 = assay: MIC assay; assay type: cell-based, Enterobacter aerogenes; conditions: Klebsiella aerogenes
Text: as §1, §2

[2] = system: exponential-phase MRSA MW2; assay: Killing kinetics assay; assay type: cell-based, S. aureus; conditions: 32 μg/ml (32× MIC), after 4 hours
Protocol: Killing kinetics assay. An MRSA MW2 overnight culture was diluted 1:10,000 in 25 mL TSB (˜10^5 CFU/mL) in a 250 mL flask and incubated at 37° C. with shaking at 200 rpm for 4.5 h until it reached exponential-phase (˜2×10^7 CFU/mL). 1 mL of the exponential phase cell culture was mixed with 1 mL of pre-warmed TSB containing twice the desired concentrations of antibiotics in a 96-well assay block (Corning Costar 3960). The assay block was incubated at 37° C. with shaking at 200 rpm. At every hour, 400 μl aliquots were taken, washed once with phosphate buffered saline (PBS), serially diluted and spot-plated onto tryptic soy agar (TSA, BD) plates. After incubation at 37° C. for overnight, colonies were counted to enumerate the number of cells. These experiments were conducted in biological triplicate.

S. aureus ATCC 29213 = assay: MIC assay; assay type: cell-based; conditions: Staphylococcus aureus, ATCC29213, read-out: Minimum inhibitory concentration
Text: as §1, §2

MRSA MW2 [3] = assay: Antibiotic synergy test (checkerboard); assay type: cell-based, S. aureus; conditions: nTZDpa in combination with the named antibiotic, synergy if FICI ≤ 0.5
Protocol: Antibiotic synergy test. Antibiotic synergism was evaluated by the checkerboard method. Briefly, 2-fold serial dilutions of nTZDpa were combined with 2-fold serial dilutions of each other antibiotic, which created an 8×8 matrix in a 96-well microtiter plate. The fractional inhibitory concentration index (FICI) was calculated as follows: FICI=MIC of compound A in combination/MIC of compound A alone+MIC of compound B in combination/MIC of compound B alone. The interaction between two compounds was defined, as follows: synergy if FICI≤0.5, no interaction if 0.5<FICI≤4, and antagonism if FICI>4.

MRSA MW2 [4] = assay: Deep-seated mouse thigh infection model; assay type: in vivo; conditions: vancomycin 25 mg/kg i.p., gentamicin 30 mg/kg s.c., nTZDpa 50 mg/kg i.p., 5 days
Protocol: Deep-seated mouse thigh infection model. In vivo efficacy of nTZDpa alone or in combination with gentamicin against MRSA persisters was evaluated by a previously described neutropenic mouse thigh infection model with modifications. Six-week-old female CD-I mice (20-25 g, Charles River Laboratories, Wilmington, Mass., USA) were obtained from Charles River Laboratories (Wilmington, Mass., USA). The CD-I mice were rendered neutropenic by administering 150 mg/kg and 100 mg/kg of cyclophosphamide intraperitoneally (i.p.) at 4 days and 1 day before infection, respectively. On the day of infection, overnight culture of MRSA MVV2 was washed 3-time with sterile saline and diluted to 10^7 CFU/ml in the saline. 50 μl of the diluted culture (5×10^5 CFU per mouse) was injected to the right thigh of each mouse. nTZDpa was dissolved in Kolliphor EL (Sigma-Aldrich, St Louis, Mo., USA)/ethanol 1:1 and then diluted 1:10 in saline to a final concentration of 50 mg/kg. At 24 h post-infection, groups of mice (n=10) were treated with 30 mg/kg gentamicin subcutaneously (s.c.) every 12 h, 25 mg/kg vancomycin i.p. every 24 h, 50 mg/kg nTZPpa i.p. every 24 h, or the combination of 50 mg/kg nTZDpa i.p. every 24 h and 30 mg/kg gentamicin s.c. every 12 h for 5 days. Control mice were injected with 250 μl of 10% Kolliphor EL/ethanol in saline i.p. every 24 h for 5 days. Mice were euthanized at 96 h post-infection. Blood was collected by cardiac puncture, and the infected thighs were aseptically excised, weighed, and stored at 4° C. until homogenization. To evaluate hepatic and renal toxicities, the levels of alanine aminotransferase and blood urea nitrogen were analyzed with commercially available kits, following the manufacturer's protocol (Pointe Scientific, Canton, Mich., USA). Thighs were homogenized in PBS, serially diluted with PBS, and spot-plated on TSA plates. […] Statistical significance among each group was analyzed by one-way ANOVA with post-hoc Tukey test using PASW Statistics 18 (SPSS Inc. Chicago, Ill., USA).

S. aureus (MRSA) MW2 = assay: Minimal inhibitory concentration (MIC) assay, micro-dilution; assay type: cell-based; conditions: Staphylococcus aureus, MRSA, read-out: Minimum inhibitory concentration
Text: as §1, §2

`O=C(O)c1cn(C2CC2)c2cc(N3CCNCC3)c(F)cc2c1=O` [Ciprofloxacin, ciprofloxacin] showed an MIC (K. pneumoniae WGLW2; K. pneumoniae WGLW2, read-out: Minimum inhibitory concentration) of 0.031 µg/mL (≈ 0.0936 µM), an MIC (S. aureus ATCC 33591; ATCC33591, S. aureus ATCC 33591, read-out: Minimum inhibitory concentration) of 0.25 µg/mL (≈ 0.754 µM) and an MIC (S. aureus JE2; S. aureus JE2, read-out: Minimum inhibitory concentration) of 16 µg/mL (≈ 48.3 µM). For the same compound, the MIC (S. aureus Newman; S. aureus Newman) was 0.25 µg/mL (≈ 0.754 µM), the MIC (S. aureus NCTC 8325; NCTC8325, S. aureus NCTC 8325, read-out: Minimum inhibitory concentration) was 0.125 µg/mL (≈ 0.377 µM) and the MIC (S. aureus VRS1; S. aureus VRS1, read-out: Minimum inhibitory concentration) was 64 µg/mL (≈ 193 µM). The MIC (P. aeruginosa PA14; P. aeruginosa PA14, read-out: Minimum inhibitory concentration) was 0.063 µg/mL (≈ 0.19 µM), the “increase of MIC over wild-type after serial passage” value (MRSA MW2 [1]) was 32 fold and the MIC (E. faecium WB312; E. faecium WB312, read-out: Minimum inhibitory concentration) was 32 µg/mL (≈ 96.6 µM). For the same compound, the MIC (E. faecium C68; E. faecium C68, read-out: Minimum inhibitory concentration) was > 64 µg/mL, the MIC (E. faecium WC196; E. faecium WC196, read-out: Minimum inhibitory concentration) was 1 µg/mL (≈ 3.02 µM) and the MIC (E.faecium E007; E.faecium E007, read-out: Minimum inhibitory concentration) was > 64 µg/mL. It also gave an MIC (A. baumannii ATCC 17978; ATCC17978, A. baumannii ATCC 17978, read-out: Minimum inhibitory concentration) of 0.25 µg/mL (≈ 0.754 µM) and an MIC (E. aerogenes ATCC 13048; ATCC13048, E. aerogenes ATCC 13048, read-out: Minimum inhibitory concentration) of 0.031 µg/mL (≈ 0.0936 µM).
With `CN[C@H](CC(C)C)C(=O)N[C@H]1C(=O)N[C@@H](CC(N)=O)C(=O)N[C@H]2C(=O)N[C@H]3C(=O)N[C@H](C(=O)N[C@H](C(=O)O)c4cc(O)cc(O)c4-c4cc3ccc4O)[C@H](O)c3ccc(c(Cl)c3)Oc3cc2cc(c3O[C@@H]2O[C@H](CO)[C@@H](O)[C@H](O)[C@H]2O[C@H]2C[C@](C)(N)[C@H](O)[C@H](C)O2)Oc2ccc(cc2Cl)[C@H]1O` [Vancomycin, vancomycin] the decrease in viability [2] was 2 log, the MIC (K. pneumoniae WGLW2; WGLW2, read-out: Minimum inhibitory concentration) was > 64 µg/mL and the MIC (S. aureus ATCC 33591; ATCC33591, read-out: Minimum inhibitory concentration) was 2 µg/mL (≈ 1.38 µM). For the same compound, the MIC (S. aureus ATCC 29213) was 1 µg/mL (≈ 0.69 µM), the MIC (S. aureus JE2; JE2, read-out: Minimum inhibitory concentration) was 1 µg/mL (≈ 0.69 µM) and the MIC (S. aureus Newman; NEWMAN) was 2 µg/mL (≈ 1.38 µM). For the same compound, the MIC (S. aureus NCTC 8325; NCTC8325, read-out: Minimum inhibitory concentration) was 1 µg/mL (≈ 0.69 µM), the MIC (S. aureus VRS1; VRS1, read-out: Minimum inhibitory concentration) was > 64 µg/mL and the “FICI (fractional inhibitory concentration index)” value (MRSA MW2 [3]) was 1. The “MRSA CFUs / viability of persisters in thigh, single agent” value (MRSA MW2 [4]) was “neither vancomycin nor gentamicin reduced MRSA CFUs”, the MIC (P. aeruginosa PA14; PA14, read-out: Minimum inhibitory concentration) was > 64 µg/mL and the MIC (E. faecium WB312; WB312, read-out: Minimum inhibitory concentration) was 16 µg/mL (≈ 11 µM). It also gave an MIC (E. faecium C68; C68, read-out: Minimum inhibitory concentration) of 64 µg/mL (≈ 44.2 µM), an MIC (E. faecium WC196; WC196, read-out: Minimum inhibitory concentration) of 64 µg/mL (≈ 44.2 µM) and an MIC (E.faecium E007; E007, read-out: Minimum inhibitory concentration) of 1 µg/mL (≈ 0.69 µM). The MIC (S. aureus (MRSA) MW2) was 1 µg/mL (≈ 0.69 µM), the MIC (A. baumannii ATCC 17978; ATCC17978, read-out: Minimum inhibitory concentration) was > 64 µg/mL and the MIC (E. aerogenes ATCC 13048; ATCC13048, read-out: Minimum inhibitory concentration) was > 64 µg/mL.
